Like-named read-outs stand apart in the source and are kept apart here.
Target: T7 RNA polymerase (Escherichia phage T7, UniProt P00573)
Details: for Composition of nucleotide incorporated as 5′ neighbor of U: Ap / Composition of nucleotide incorporated as 5′ neighbor of U: Gp / Composition of nucleotide incorporated as 5′ neighbor of U: Np (Dsp) / Composition of nucleotide incorporated as 5′ neighbor of U: Up / Composition of nucleotide incorporated as 5′ neighbor of U: Cp: [α-32P]UTP; for Composition of nucleotide incorporated as 5′ neighbor of A: Up / Composition of nucleotide incorporated as 5′ neighbor of A: Np (Dsp) / Composition of nucleotide incorporated as 5′ neighbor of A: Ap / Composition of nucleotide incorporated as 5′ neighbor of A: Gp / Composition of nucleotide incorporated as 5′ neighbor of A: Cp: [α-32P]ATP; for Composition of nucleotide incorporated as 5′ neighbor of A: Cp: theoretical [7]
[1] = Entry 14, template temp35Pa-4, natural NTP 1 mM, Ds 1 mM, theoretical [0]
[2] = Entry 14, template temp35Pa-4, natural NTP 1 mM, Ds 1 mM, theoretical [1]
[3] = Entry 15, template temp35Pa-4, natural NTP 1 mM, Ds 3 mM, theoretical [0]
[4] = Entry 15, template temp35Pa-4, natural NTP 1 mM, Ds 3 mM, theoretical [1]
[5] = Entry 16, template temp35Pa′-4, natural NTP 1 mM, Ds 1 mM, theoretical [0]
[6] = Entry 16, template temp35Pa′-4, natural NTP 1 mM, Ds 1 mM, theoretical [1]
[7] = Entry 17, template temp35Pa′-4, natural NTP 1 mM, Ds 3 mM, theoretical [0]
[8] = Entry 17, template temp35Pa′-4, natural NTP 1 mM, Ds 3 mM, theoretical [1]
[9] = Entry 18, template temp35C-4, natural NTP 1 mM, Ds 1 mM, theoretical [0]
[10] = Entry 18, template temp35C-4, natural NTP 1 mM, Ds 1 mM, theoretical [1]
[11] = Entry 19, template temp35C-4, natural NTP 1 mM, Ds 3 mM, theoretical [0]
[12] = Entry 19, template temp35C-4, natural NTP 1 mM, Ds 3 mM, theoretical [1]
[13] = Entry 20, template temp35T-4, natural NTP 1 mM, Ds 1 mM, theoretical [0]
[14] = Entry 20, template temp35T-4, natural NTP 1 mM, Ds 1 mM, theoretical [1]
[15] = Entry 21, template temp35T-4, natural NTP 1 mM, Ds 3 mM, theoretical [0]
[16] = Entry 21, template temp35T-4, natural NTP 1 mM, Ds 3 mM, theoretical [1]
[17] = Entry 29, template DNA14, natural NTP 2 mM, Ds 2 mM, theoretical [6]
[18] = Entry 31, template DNAcont4, natural NTP 2 mM, Ds 2 mM, theoretical [6]
[19] = Entry 36, template DNA13, natural NTP 2 mM, Ds 2 mM, theoretical [4]
[20] = Entry 37, template DNA14, natural NTP 2 mM, Ds 2 mM, theoretical [4]
[21] = Entry 39, template DNAcont4, natural NTP 2 mM, Ds 2 mM, theoretical [4]

Sequence of T7 RNA polymerase (P00573 whole entry): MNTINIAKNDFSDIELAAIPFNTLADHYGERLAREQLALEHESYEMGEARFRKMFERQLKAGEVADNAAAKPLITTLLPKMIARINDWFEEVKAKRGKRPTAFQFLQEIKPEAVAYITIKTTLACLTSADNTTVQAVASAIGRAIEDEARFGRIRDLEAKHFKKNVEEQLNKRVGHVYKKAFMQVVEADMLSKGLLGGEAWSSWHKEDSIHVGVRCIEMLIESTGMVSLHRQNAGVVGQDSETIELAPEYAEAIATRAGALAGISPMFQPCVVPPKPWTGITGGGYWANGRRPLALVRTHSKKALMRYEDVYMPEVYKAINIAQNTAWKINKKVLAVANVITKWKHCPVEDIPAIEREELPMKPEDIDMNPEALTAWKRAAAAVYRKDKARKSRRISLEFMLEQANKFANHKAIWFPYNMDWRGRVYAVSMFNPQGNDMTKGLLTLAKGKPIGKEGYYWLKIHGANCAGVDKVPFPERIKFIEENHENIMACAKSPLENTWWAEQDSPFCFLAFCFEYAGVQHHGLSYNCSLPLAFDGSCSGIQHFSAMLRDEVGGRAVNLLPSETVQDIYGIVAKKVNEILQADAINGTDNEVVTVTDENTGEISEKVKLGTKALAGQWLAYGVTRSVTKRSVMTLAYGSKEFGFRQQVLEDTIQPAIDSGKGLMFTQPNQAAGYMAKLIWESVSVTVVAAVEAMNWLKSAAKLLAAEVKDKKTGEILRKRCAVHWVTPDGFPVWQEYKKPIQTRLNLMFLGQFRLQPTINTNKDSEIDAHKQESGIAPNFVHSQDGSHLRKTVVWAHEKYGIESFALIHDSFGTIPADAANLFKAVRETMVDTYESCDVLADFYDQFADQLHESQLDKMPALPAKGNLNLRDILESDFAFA
Experimental: Transcription (20 μl) was accomplished in 40 mM Tris-HCl buffer (pH 8.0) containing 24 mM MgCl2, 2 mM spermidine, 5 mM DTT, 0.01% Triton X-100, 1-3 mM each natural NTP, 0-3 mM Pa′TP, 0-3 mM DsTP, 10 mM GMP, 2 μM template DNA (for 17-mer transcript synthesis) or 0.5 μM template DNA (for tRNA transcript synthesis), and 2.5 units/μl T7 RNA polymerase (TAKARA). […] For nucleotide composition analysis in transcripts (Non-patent Documents 17 and 33), the transcripts were internally labeled with 2 μCi [α-^32P]UTP or [α-^32P]ATP (Amersham). After the transcription, the products were digested with 0.75 units of RNase T2 at 37° C. for 2 hours in 10 μl of 15 mM sodium acetate buffer (pH 4.5). For 17-mer analysis, 0.05 A260 units of E. coli tRNA (Sigma) was added to the digestion reaction solution. The digestion products were analyzed by 2D-TLC (HPTLC plate, 100×100 mm, Merck). The developing solvents used for the first and second dimensions were isobutyric acid-ammonia-water (66:1:33 v/v/v) and isopropyl alcohol-HCl-water (70:15:15 v/v/v or 75:15:10 v/v/v for Pa′ transcripts), respectively. Spots of the labeled nucleotides on the TLC plate were analyzed with a bio-imaging analyzer.
The internally ^32P-labeled transcripts were digested with Rnase T2, and the resulting labeled nucleoside 3′-monophosphates were analyzed by 2D thin-layer chromatography (2D-TLC).

SMILES: O=P(O)(O)OP(=O)(O)OP(=O)(O)OC[C@H]1O[C@@H](n2cnc3c(-c4cccs4)ccnc32)[C@H](O)[C@@H]1O [DsTP, 7-(2-Thienyl)-3-(β-D-ribofuranosyl)-3H-imidazo[4,5-b]pyridine 5′-triphosphate]
- Composition of nucleotide incorporated as 5′ neighbor of U: Ap [1]: 0.02 [0]
- Composition of nucleotide incorporated as 5′ neighbor of U: Gp [1]: n.d. [0]
- Composition of nucleotide incorporated as 5′ neighbor of U: Np (Dsp) [2]: 0.98 [1]
- Composition of nucleotide incorporated as 5′ neighbor of U: Up [2]: 1.00 [1]
- Composition of nucleotide incorporated as 5′ neighbor of U: Cp (Entry 14, template temp35Pa-4, natural NTP 1 mM, Ds 1 mM, theoretical [2]): 1.99 [2]
- Composition of nucleotide incorporated as 5′ neighbor of U: Ap [3]: 0.01 [0]
- Composition of nucleotide incorporated as 5′ neighbor of U: Gp [3]: n.d. [0]
- Composition of nucleotide incorporated as 5′ neighbor of U: Np (Dsp) [4]: 0.99 [1]
- Composition of nucleotide incorporated as 5′ neighbor of U: Up [4]: 1.01 [1]
- Composition of nucleotide incorporated as 5′ neighbor of U: Cp (Entry 15, template temp35Pa-4, natural NTP 1 mM, Ds 3 mM, theoretical [2]): 1.99 [2]
- Composition of nucleotide incorporated as 5′ neighbor of U: Ap [5]: 0.05 [0]
- Composition of nucleotide incorporated as 5′ neighbor of U: Gp [5]: n.d. [0]
- Composition of nucleotide incorporated as 5′ neighbor of U: Np (Dsp) [6]: 0.94 [1]
- Composition of nucleotide incorporated as 5′ neighbor of U: Up [6]: 1.02 [1]
- Composition of nucleotide incorporated as 5′ neighbor of U: Cp (Entry 16, template temp35Pa′-4, natural NTP 1 mM, Ds 1 mM, theoretical [2]): 1.98 [2]
- Composition of nucleotide incorporated as 5′ neighbor of U: Ap [7]: 0.02 [0]
- Composition of nucleotide incorporated as 5′ neighbor of U: Gp [7]: n.d. [0]
- Composition of nucleotide incorporated as 5′ neighbor of U: Np (Dsp) [8]: 0.96 [1]
- Composition of nucleotide incorporated as 5′ neighbor of U: Up [8]: 1.02 [1]
- Composition of nucleotide incorporated as 5′ neighbor of U: Cp (Entry 17, template temp35Pa′-4, natural NTP 1 mM, Ds 3 mM, theoretical [2]): 1.99 [2]
- Composition of nucleotide incorporated as 5′ neighbor of U: Ap [9]: 0.01 [0]
- Composition of nucleotide incorporated as 5′ neighbor of U: Np (Dsp) [9]: n.d. [0]
- Composition of nucleotide incorporated as 5′ neighbor of U: Gp [10]: 0.98 [1]
- Composition of nucleotide incorporated as 5′ neighbor of U: Up [10]: 1.00 [1]
- Composition of nucleotide incorporated as 5′ neighbor of U: Cp (Entry 18, template temp35C-4, natural NTP 1 mM, Ds 1 mM, theoretical [2]): 2.01 [2]
- Composition of nucleotide incorporated as 5′ neighbor of U: Ap [11]: 0.01 [0]
- Composition of nucleotide incorporated as 5′ neighbor of U: Np (Dsp) [11]: n.d. [0]
- Composition of nucleotide incorporated as 5′ neighbor of U: Gp [12]: 0.97 [1]
- Composition of nucleotide incorporated as 5′ neighbor of U: Up [12]: 1.00 [1]
- Composition of nucleotide incorporated as 5′ neighbor of U: Cp (Entry 19, template temp35C-4, natural NTP 1 mM, Ds 3 mM, theoretical [2]): 2.03 [2]
- Composition of nucleotide incorporated as 5′ neighbor of U: Gp [13]: n.d. [0]
- Composition of nucleotide incorporated as 5′ neighbor of U: Np (Dsp) [13]: n.d. [0]
- Composition of nucleotide incorporated as 5′ neighbor of U: Ap [14]: 0.99 [1]
- Composition of nucleotide incorporated as 5′ neighbor of U: Up [14]: 1.02 [1]
- Composition of nucleotide incorporated as 5′ neighbor of U: Cp (Entry 20, template temp35T-4, natural NTP 1 mM, Ds 1 mM, theoretical [2]): 1.99 [2]
- Composition of nucleotide incorporated as 5′ neighbor of U: Gp [15]: n.d. [0]
- Composition of nucleotide incorporated as 5′ neighbor of U: Np (Dsp) [15]: n.d. [0]
- Composition of nucleotide incorporated as 5′ neighbor of U: Ap [16]: 0.99 [1]
- Composition of nucleotide incorporated as 5′ neighbor of U: Up [16]: 1.01 [1]
- Composition of nucleotide incorporated as 5′ neighbor of U: Cp (Entry 21, template temp35T-4, natural NTP 1 mM, Ds 3 mM, theoretical [2]): 2.00 [2]
- Composition of nucleotide incorporated as 5′ neighbor of A: Up (Entry 28, template DNA13, natural NTP 2 mM, Ds 2 mM, theoretical [0]): 0.05 [0]
- Composition of nucleotide incorporated as 5′ neighbor of A: Np (Dsp) (Entry 28, template DNA13, natural NTP 2 mM, Ds 2 mM, theoretical [1]): 0.96 [1]
- Composition of nucleotide incorporated as 5′ neighbor of A: Ap (Entry 28, template DNA13, natural NTP 2 mM, Ds 2 mM, theoretical [5]): 5.04 [5]
- Composition of nucleotide incorporated as 5′ neighbor of A: Gp (Entry 28, template DNA13, natural NTP 2 mM, Ds 2 mM, theoretical [6]): 6.02 [6]
- Composition of nucleotide incorporated as 5′ neighbor of A: Cp (Entry 28, template DNA13, natural NTP 2 mM, Ds 2 mM): 6.93 [7]
- Composition of nucleotide incorporated as 5′ neighbor of A: Up (Entry 29, template DNA14, natural NTP 2 mM, Ds 2 mM, theoretical [0]): 0.03 [0]
- Composition of nucleotide incorporated as 5′ neighbor of A: Np (Dsp) (Entry 29, template DNA14, natural NTP 2 mM, Ds 2 mM, theoretical [1]): 0.96 [1]
- Composition of nucleotide incorporated as 5′ neighbor of A: Ap [17]: 6.13 [6]
- Composition of nucleotide incorporated as 5′ neighbor of A: Gp [17]: 5.96 [6]
- Composition of nucleotide incorporated as 5′ neighbor of A: Cp (Entry 29, template DNA14, natural NTP 2 mM, Ds 2 mM): 6.93 [7]
- Composition of nucleotide incorporated as 5′ neighbor of A: Np (Dsp) (Entry 31, template DNAcont4, natural NTP 2 mM, Ds 2 mM, theoretical [0]): 0.02 [0]
- Composition of nucleotide incorporated as 5′ neighbor of A: Up (Entry 31, template DNAcont4, natural NTP 2 mM, Ds 2 mM, theoretical [1]): 1.09 [1]
- Composition of nucleotide incorporated as 5′ neighbor of A: Ap [18]: 6.10 [6]
- Composition of nucleotide incorporated as 5′ neighbor of A: Gp [18]: 5.98 [6]
- Composition of nucleotide incorporated as 5′ neighbor of A: Cp (Entry 31, template DNAcont4, natural NTP 2 mM, Ds 2 mM): 6.83 [7]
- Composition of nucleotide incorporated as 5′ neighbor of U: Np (Dsp) (Entry 36, template DNA13, natural NTP 2 mM, Ds 2 mM, theoretical [0]): n.d. [0]
- Composition of nucleotide incorporated as 5′ neighbor of U: Ap (Entry 36, template DNA13, natural NTP 2 mM, Ds 2 mM, theoretical [2]): 2.00 [2]
- Composition of nucleotide incorporated as 5′ neighbor of U: Gp [19]: 3.97 [4]
- Composition of nucleotide incorporated as 5′ neighbor of U: Up [19]: 4.03 [4]
- Composition of nucleotide incorporated as 5′ neighbor of U: Cp (Entry 36, template DNA13, natural NTP 2 mM, Ds 2 mM, theoretical [5]): 4.99 [5]
- Composition of nucleotide incorporated as 5′ neighbor of U: Np (Dsp) (Entry 37, template DNA14, natural NTP 2 mM, Ds 2 mM, theoretical [0]): 0.01 [0]
- Composition of nucleotide incorporated as 5′ neighbor of U: Ap (Entry 37, template DNA14, natural NTP 2 mM, Ds 2 mM, theoretical [2]): 1.99 [2]
- Composition of nucleotide incorporated as 5′ neighbor of U: Cp [20]: 4.02 [4]
- Composition of nucleotide incorporated as 5′ neighbor of U: Gp [20]: 3.91 [4]
- Composition of nucleotide incorporated as 5′ neighbor of U: Up [20]: 4.08 [4]
- Composition of nucleotide incorporated as 5′ neighbor of U: Np (Dsp) (Entry 39, template DNAcont4, natural NTP 2 mM, Ds 2 mM, theoretical [0]): 0.01 [0]
- Composition of nucleotide incorporated as 5′ neighbor of U: Ap (Entry 39, template DNAcont4, natural NTP 2 mM, Ds 2 mM, theoretical [2]): 1.99 [2]
- Composition of nucleotide incorporated as 5′ neighbor of U: Gp [21]: 3.95 [4]
- Composition of nucleotide incorporated as 5′ neighbor of U: Up [21]: 4.05 [4]
- Composition of nucleotide incorporated as 5′ neighbor of U: Cp (Entry 39, template DNAcont4, natural NTP 2 mM, Ds 2 mM, theoretical [5]): 5.01 [5]

— patent US8030478B2, “Method for nucleic acid replication and novel artificial base pairs” (priority 2005, dated 2011)
